Assays:
[1] = biological target: 5-HT2A receptor membrane preparations obtained from PSYLI2 cells (Homo sapiens, UniProt P28223); test: Ligand binding kinetics with [3H]-LSD on PSYLI2 membrane preparations; details: kinetics of competition binding vs [3H]-LSD
Procedure: Ligand binding kinetics at the 5-HT2AR.
Data represent the mean ± SEM of 2–3 biological replicates.
Data represent the mean ± SEM of 2–4 biological replicates.
Binding buffer consisted of 50 mM Tris HCl, 10 mM MgCl2, 0.1 mM EDTA disodium dihydrate in autoclaved
deionized water. The solution was adjusted to pH 7.4 with 10 M NaOH(aq) and stored at 4 °C. This solution was used in
membrane preparation generation as well as competition and kinetics assays.
free, see 15) were grown in 15-cm plates with Dulbecco’s Modified Eagle Media (DMEM) containing 10% fetal bovine serum and 1% penicillin/streptomycin. When the cells were >90% confluent, the media was removed, and the cells were washed
with Dulbecco’s Phosphate Buffered Saline (DPBS) (15 mL). Next, DMEM (15 mL) lacking fetal bovine serum and
penicillin/streptomycin was added, and the cells were serum-starved for 4–12 hours. Roughly 10 mL of the DMEM was
removed, leaving ~5 mL of media in the plates before placing them on ice. Once on ice, the plates were scraped and the
contents were transferred to a pre-chilled 50 mL Falcon tube and then centrifuged (2,000 g, 10 min, 4 °C). The supernatant […]
of 0.25 mL to use for quantification of protein concentration via a Bradford assay with a Coomassie protein assay reagent. […]
For association binding experiments, total and nonspecific binding was determined by adding binding buffer (2.5X solution, […]

[2] = tested on: C57BL/6J mice; test: Prepulse inhibition (PPI); type: in vivo
Procedure: Amphetamine-Induced Locomotion. The amphetamine-induced hyperlocomotion assay was performed using male and female C57BL/6J mice that were approximately 8 weeks old at the time of the experiments. Animals were first placed in the test arena (40 cm x 40 cm) for 15 min to obtain a basal reading of locomotion and habituate them to the testing arena.
Next, animals were administered (+)-JRT (1 mg/kg) or VEH (2.5 mL/kg, i.p) and placed back in the test arena. After 15 min, the animals were administered (+)-amphetamine (3 mg/kg) or VEH (2.5 mL/kg) and placed back in the test arena for 60 minutes. Locomotion during the entire experiment was quantified using ANYmaze Video Tracking System, version 7.07 (Stoelting Co.). The test arena was cleaned thoroughly with 70% ethanol between trials.
PCP-Induced Locomotion. The PCP-induced hyperlocomotion assay was performed by Psychogenics using male C57BL/6J mice that were approximately 8 weeks old at the time of the experiments. The experiment was performed during the animal’s light cycle phase. […] Baseline activity was recorded for 30 min. […] Locomotion was assessed using consecutive infrared beam breaks. […]
Next, startle response was measured in response to five 40 ms sound bursts of 80, 90, 100, 110, or 120 dB (random order, fixed intertrial interval). […] Percent PPI was calculated according to the formula: 100 – [(pre-pulse + pulse)/pulse alone) × 100. […]

[3] = tested on: male C57BL/6J mice; test: Head-twitch antagonism of an LSD dose response (Transpharmation); type: in vivo; details: +JRT PreTx (1 mg/kg IP, 30 min prior) then VEH (1% DMSO); -JRT 0.7 ± 0.3
Procedure: Head-Twitch Response Assay. The HTR assay was performed using equal numbers of male and female C57BL/6J mice.
The mice were obtained from The Jackson Laboratory (Sacramento, CA) and were approximately 8 – 12 weeks old at the time of the experiments. After compound administration, animals were placed into an empty arena (40 cm x 40 cm) and filmed for 20 min. The arena was cleaned with 70% ethanol between trials.

[4] = biological target: 5-HT2 receptors (5-HT2A, 5-HT2B, 5-HT2C); test: Competitive radioligand binding assays at 5-HT2 receptors; details: read-out: Ki range, entire family of 5-HT2 receptors; free base
Description: Radioligand binding (RLB) (top) and IP1 functional assays
(bottom) for 5-HT2A (A), 5-HT2B (B), and 5-HT2C (C) receptors. (D) The PathHunter® β-arrestin assay was used to
HT2A receptors. Data represent the mean ± SEM of 2–6 biological replicates (performed in duplicate), with the sole
exception that the β-arrestin data for (–)-JRT represents a single biological replicate averaged from 2 technical replicates.
Drugs. Many of the drugs used in these studies were purchased from commercial sources including (+)-amphetamine sulfate (Sigma Aldrich, 1180004), ketamine hydrochloride (Spectrum, K1068), and ketanserin (APExBIO, B2248).
JRT were synthesized in-house and judged to be analytically pure based on NMR and LC-MS data. For cell culture experiments, VEH = 0.1% (agonist studies) or 0.2% (antagonist studies) molecular biology grade dimethyl sulfoxide (Sigma-Aldrich).
Fumarate salts of (+)-JRT and (–)-JRT were used for all biological studies unless noted otherwise.

5-HT2A receptor membrane preparations obtained from PSYLI2 cells, sequence (P28223 1-263 limits assumed): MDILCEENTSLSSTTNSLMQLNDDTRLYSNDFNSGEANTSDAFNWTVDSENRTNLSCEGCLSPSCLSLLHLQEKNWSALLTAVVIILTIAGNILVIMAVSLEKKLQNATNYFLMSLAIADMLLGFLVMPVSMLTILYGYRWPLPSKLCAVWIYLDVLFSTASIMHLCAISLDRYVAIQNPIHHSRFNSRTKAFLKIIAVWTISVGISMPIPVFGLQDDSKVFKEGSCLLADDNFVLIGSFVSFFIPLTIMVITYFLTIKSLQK
5-HT2A receptor membrane preparations obtained from PSYLI2 cells, sequence (P28223 316-471 limits assumed): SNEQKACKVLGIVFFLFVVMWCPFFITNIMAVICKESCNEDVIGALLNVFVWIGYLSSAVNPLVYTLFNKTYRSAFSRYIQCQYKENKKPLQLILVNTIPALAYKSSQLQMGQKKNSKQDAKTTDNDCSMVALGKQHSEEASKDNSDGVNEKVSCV

`CCN(CC)C(=O)[C@@H]1C=C2c3cccc4ccn(c34)C[C@H]2N(C)C1` [(+)-JRT] was tested, and the “Dissociation rate from the 5-HT2A receptor, fold faster than LSD” value [1] was “approximately 10 fold”, the “Deficits in prepulse inhibition induced by the compound itself” value ([2]; 1 mg/kg IP) was “did not induce any deficits in PPI” and the “Effect of pretreatment on MK-801-induced deficits in prepulse inhibition” value ([2]; 1 mg/kg IP pretreatment, MK-801) was “did not exacerbate”. The “Head-twitch response over 20 min (Figure S9)” value [3] was 3.9 ± 0.567 and the Ki [4] was 2 to 184 nM.
